According to BigSolDB 2.1:

SMILES: COc1c(O)cc2c(c1O)[C@@H]1O[C@H](CO)[C@@H](O)[C@H](O)[C@H]1OC2=O
- solubility (mole fraction) (in DMSO, 298.15 K): 0.0171
- solubility (mole fraction) (in DMSO, 303.15 K): 0.0184
- solubility (mole fraction) (in DMSO, 308.15 K): 0.02
- solubility (mole fraction) (in DMSO, 313.15 K): 0.0214
- solubility (mole fraction) (in DMSO, 318.15 K): 0.023
- solubility (mole fraction) (in PEG-400, 298.15 K): 0.0236
- solubility (mole fraction) (in PEG-400, 303.15 K): 0.0277
- solubility (mole fraction) (in PEG-400, 308.15 K): 0.032
- solubility (mole fraction) (in PEG-400, 313.15 K): 0.0367
- solubility (mole fraction) (in PEG-400, 318.15 K): 0.0415
- solubility (mole fraction) (in ethanol, 298.15 K): 0.00469
- solubility (mole fraction) (in ethanol, 303.15 K): 0.00537
- solubility (mole fraction) (in ethanol, 308.15 K): 0.00612
- solubility (mole fraction) (in ethanol, 313.15 K): 0.00687
- solubility (mole fraction) (in ethanol, 318.15 K): 0.00777
- solubility (mole fraction) (in ethyl acetate, 298.15 K): 0.000228
- solubility (mole fraction) (in ethyl acetate, 303.15 K): 0.000311
- solubility (mole fraction) (in ethyl acetate, 308.15 K): 0.000405
- solubility (mole fraction) (in ethyl acetate, 313.15 K): 0.000526
- solubility (mole fraction) (in ethyl acetate, 318.15 K): 0.000671
- solubility (mole fraction) (in ethylene glycol, 298.15 K): 0.00774
- solubility (mole fraction) (in ethylene glycol, 303.15 K): 0.00859
- solubility (mole fraction) (in ethylene glycol, 308.15 K): 0.00944
- solubility (mole fraction) (in ethylene glycol, 313.15 K): 0.0105
- solubility (mole fraction) (in ethylene glycol, 318.15 K): 0.0117
- solubility (mole fraction) (in isopropanol, 298.15 K): 0.00129
- solubility (mole fraction) (in isopropanol, 303.15 K): 0.00139
- solubility (mole fraction) (in isopropanol, 308.15 K): 0.00149
- solubility (mole fraction) (in isopropanol, 313.15 K): 0.00159
- solubility (mole fraction) (in isopropanol, 318.15 K): 0.00169
- solubility (mole fraction) (in n-butanol, 298.15 K): 0.000379
- solubility (mole fraction) (in n-butanol, 303.15 K): 0.000404
- solubility (mole fraction) (in n-butanol, 308.15 K): 0.000431
- solubility (mole fraction) (in n-butanol, 313.15 K): 0.000458
- solubility (mole fraction) (in n-butanol, 318.15 K): 0.000492
- solubility (mole fraction) (in propylene glycol, 298.15 K): 0.00777
- solubility (mole fraction) (in propylene glycol, 303.15 K): 0.00873
- solubility (mole fraction) (in propylene glycol, 308.15 K): 0.00966
- solubility (mole fraction) (in propylene glycol, 313.15 K): 0.0108
- solubility (mole fraction) (in propylene glycol, 318.15 K): 0.0119
- solubility (mole fraction) (in sec-butanol, 298.15 K): 0.000384
- solubility (mole fraction) (in sec-butanol, 303.15 K): 0.00041
- solubility (mole fraction) (in sec-butanol, 308.15 K): 0.00044
- solubility (mole fraction) (in sec-butanol, 313.15 K): 0.000473
- solubility (mole fraction) (in sec-butanol, 318.15 K): 0.000514
- solubility (mole fraction) (in transcutol, 298.15 K): 0.0145
- solubility (mole fraction) (in transcutol, 303.15 K): 0.0166
- solubility (mole fraction) (in transcutol, 308.15 K): 0.0186
- solubility (mole fraction) (in transcutol, 313.15 K): 0.0207
- solubility (mole fraction) (in transcutol, 318.15 K): 0.0228
- solubility (mole fraction) (in water, 298.15 K): 7.57e-05
- solubility (mole fraction) (in water, 303.15 K): 9.93e-05
- solubility (mole fraction) (in water, 308.15 K): 0.000125
- solubility (mole fraction) (in water, 313.15 K): 0.000155
- solubility (mole fraction) (in water, 318.15 K): 0.000187
